Measurements from patent publication US20190153021A1, “THERAPEUTIC COMPOUNDS” (UNIVERSITY OF IOWA RESEARCH FOUNDATION, priority 2015, published 2019).
pIC50: −log10 of the molar value.

Assays:
[1] = In vivo efficacy of OSW-1
[2] = Metabolic stability and pharmacokinetics, cleavage of ester groups in mouse blood; type: in vitro ADME
[3] = system: NCI 60 cell-line tumor panel; conditions: cited from earlier work
dormant cancer cells = conditions: independent of cell cycle; cited from earlier work
[4] = simplified steroidal aglycone; cited from earlier work

SMILES	in vivo efficacy [1]	pharmacokinetics (PK) [2]	metabolic stability: cleavage of the two ester groups ([2]; enzymes in mouse blood, gives major metabolite 2)	pIC50 ([3]; mean over NCI 60-cell in vitro screen)	anticancer activities, times more potent than many well-known anticancer drugs in clinical use ([3]; relative potency)	concentration that effectively kills dormant cancer cells (dormant cancer cells)	in vitro anticancer activity compared with compound 1 [4]
COc1ccc(C(=O)O[C@H]2[C@H](O[C@@H]3[C@@H](OC(C)=O)[C@H](O[C@H]4C[C@H]5[C@@H]6CC=C7C[C@@H](O)CC[C@]7(C)[C@H]6CC[C@]5(C)[C@@]4(O)[C@H](C)C(=O)CCC(C)C)OC[C@@H]3O)OC[C@@H](O)[C@@H]2O)cc1 [OSW-1]	relatively weak	poor	quickly cleaved	9.11	10-100 times	sub-nM	
COc1ccc(C(=O)OC2C(OC3C(O)COC(O[C@H]4C[C@@H]5[C@H](CC[C@H]6[C@H]5CC=C5C[C@@H](O)CC[C@@]56C)[C@H]4[C@H](C)CCCC(C)C)C3OC(C)=O)OCC(O)C2O)cc1 (stereo partly shown) [Compound 3]							similar
